Measured values reported in ChEMBL document CHEMBL1150812, “New taxane analogues from the needles of Taxus canadensis” (J Nat Prod, 2001).

system: MCF7; experiment: Antiproliferative activity against human MCF7 cells after 72 hrs by MTT assay; format: functional, cell-based; details: MCF7, 72 h

SMILES	IC50
C/C=C(\C)C(=O)N[C@@H](c1ccccc1)[C@@H](O)C(=O)O[C@H]1C[C@@]2(O)[C@@H](OC(=O)c3ccccc3)[C@@H]3[C@]4(OC(C)=O)CO[C@@H]4C[C@@H](O)[C@@]3(C)C(=O)C(=O)C(=C1C)C2(C)C	80 nM
C/C=C(\C)C(=O)N[C@@H](c1ccccc1)[C@@H](O)C(=O)O[C@H]1C[C@@]2(O)[C@@H](OC(=O)c3ccccc3)[C@@H]3[C@]4(OC(C)=O)CO[C@@H]4C[C@H](O)[C@@]3(C)C(=O)[C@H](OC(C)=O)C(=C1C)C2(C)C [CEPHALOMANNINE]	6 nM
CC(=O)O[C@H]1C[C@H]2OC[C@@]2(OC(C)=O)[C@H]2[C@H](OC(=O)c3ccccc3)[C@]3(O)C[C@H](OC(=O)[C@H](O)[C@@H](NC(=O)c4ccccc4)c4ccccc4)C(C)=C([C@@H](O)C(=O)[C@]12C)C3(C)C	10 nM
CC(=O)O[C@@]12CO[C@@H]1C[C@H](O)[C@@]1(C)C(=O)C(=O)C3=C(C)[C@@H](OC(=O)[C@H](O)[C@@H](NC(=O)c4ccccc4)c4ccccc4)C[C@@](O)([C@@H](OC(=O)c4ccccc4)[C@H]21)C3(C)C	64 nM
